# Test results: ChEMBL document CHEMBL5257023, “Identification of leads for antiproliferative activity on MDA-MB-435 human breast cancer cells through pharmacophore and CYP1A1-mediated metabolism” (Eur J Med Chem, 2016); call rule not given here
# Columns and labels:
# [1] = test system: MCF7; experiment: Anticancer activity against human MCF7 cells assessed as inhibition of cell growth; assay type: functional, cell-based
# [2] = test system: MDA-MB-435; experiment: Anticancer activity against human MDA-MB-435 cells assessed as inhibition of cell growth incubated for 48 hrs by SRB assay; assay type: functional
# [3] = test system: NCI-H226; experiment: Anticancer activity against human NCI-H226 cells assessed as cell growth at 10 uM incubated for 48 hrs by SRB assay; assay type: functional; conditions: read-out: Activity
# [4] = target: T1, CYP1A1 (Homo sapiens, UniProt P04798); experiment: Inhibition of recombinant CYP1A1 (unknown origin) assessed as residual enzyme activity using 7-ethoxyresorufin as substrate at 0.01 uM incubated for 15 mins by resorufin dye based spectrofluorimetry (reference value: 100%); assay type: ADME; conditions: recombinant CYP1A1, probe 7-ethoxyresorufin, read-out: Activity
# T1 sequence (P04798 whole entry): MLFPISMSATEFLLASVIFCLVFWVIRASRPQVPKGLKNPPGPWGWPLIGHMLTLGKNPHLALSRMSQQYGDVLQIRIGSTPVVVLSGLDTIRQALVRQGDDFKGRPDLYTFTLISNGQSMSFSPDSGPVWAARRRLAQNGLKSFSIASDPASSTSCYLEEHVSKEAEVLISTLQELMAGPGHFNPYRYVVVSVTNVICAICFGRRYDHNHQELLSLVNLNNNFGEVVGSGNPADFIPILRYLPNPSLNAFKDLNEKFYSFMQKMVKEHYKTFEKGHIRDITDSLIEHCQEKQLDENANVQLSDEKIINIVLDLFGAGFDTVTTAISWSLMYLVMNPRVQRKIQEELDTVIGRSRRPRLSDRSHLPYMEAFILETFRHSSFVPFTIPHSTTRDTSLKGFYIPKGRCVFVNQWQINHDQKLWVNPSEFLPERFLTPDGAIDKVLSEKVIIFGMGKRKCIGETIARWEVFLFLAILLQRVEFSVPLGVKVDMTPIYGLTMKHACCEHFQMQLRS
# [5] = test system: MDA-MB-435; experiment: Anticancer activity against human MDA-MB-435 cells assessed as cell growth at 100 uM incubated for 48 hrs by SRB assay; assay type: functional; conditions: read-out: Activity
# [6] = test system: MDA-MB-435; experiment: Anticancer activity against human MDA-MB-435 cells assessed as cell growth at 0.1 uM incubated for 48 hrs by SRB assay; assay type: functional; conditions: read-out: Activity
# [7] = test system: MCF7; experiment: Anticancer activity against human MCF7 cells assessed as cell growth at 1 uM incubated for 48 hrs by SRB assay; assay type: functional; conditions: read-out: Activity
# [8] = test system: NCI-H226; experiment: Anticancer activity against human NCI-H226 cells assessed as cell growth at 1 uM incubated for 48 hrs by SRB assay; assay type: functional; conditions: read-out: Activity
# [9] = test system: MDA-MB-435; experiment: Anticancer activity against human MDA-MB-435 cells assessed as cell growth at 10 uM incubated for 48 hrs by SRB assay; assay type: functional; conditions: read-out: Activity
# [10] = test system: MDA-MB-468; experiment: Anticancer activity against human MDA-MB-468 cells assessed as inhibition of cell growth incubated for 48 hrs by SRB assay; assay type: functional
# [11] = target: T2, Cytochrome P450 1A1 (Homo sapiens, UniProt P04798); experiment: Inhibition of recombinant CYP1A1 (unknown origin) assessed as decrease in EROD activity using 7-ethoxyresorufin as substrate upto 100 uM incubated for 15 mins by resorufin dye based spectrofluorimetry; assay type: ADME; conditions: recombinant enzyme, 0.25 h
# T2 sequence (P04798 whole entry): T1 sequence (P04798 whole entry)
# [12] = test system: MCF7; experiment: Anticancer activity against human MCF7 cells assessed as cell growth at 100 uM incubated for 48 hrs by SRB assay; assay type: functional; conditions: read-out: Activity
# [13] = target: T1, CYP1A1; experiment: Inhibition of recombinant CYP1A1 (unknown origin) assessed as residual enzyme activity using 7-ethoxyresorufin as substrate at 0.1 uM incubated for 15 mins by resorufin dye based spectrofluorimetry (reference value: 100%); assay type: ADME; conditions: recombinant CYP1A1, probe 7-ethoxyresorufin, read-out: Activity
# [14] = target: T1, CYP1A1; experiment: Inhibition of recombinant CYP1A1 (unknown origin) assessed as residual enzyme activity using 7-ethoxyresorufin as substrate at 100 uM incubated for 15 mins by resorufin dye based spectrofluorimetry (reference value: 100%); assay type: ADME; conditions: recombinant CYP1A1, probe 7-ethoxyresorufin, read-out: Activity
# [15] = target: T1, CYP1A1; experiment: Inhibition of recombinant CYP1A1 (unknown origin) assessed as residual enzyme activity using 7-ethoxyresorufin as substrate at 50 uM incubated for 15 mins by resorufin dye based spectrofluorimetry (reference value: 100%); assay type: ADME; conditions: recombinant CYP1A1, probe 7-ethoxyresorufin, read-out: Activity
# [16] = test system: NCI-H226; experiment: Anticancer activity against human NCI-H226 cells assessed as inhibition of cell growth incubated for 48 hrs by SRB assay; assay type: functional
# [17] = test system: MCF7; experiment: Anticancer activity against human MCF7 cells assessed as cell growth at 0.1 uM incubated for 48 hrs by SRB assay; assay type: functional; conditions: read-out: Activity
# [18] = test system: NCI-H226; experiment: Anticancer activity against human NCI-H226 cells assessed as cell growth at 100 uM incubated for 48 hrs by SRB assay; assay type: functional; conditions: read-out: Activity
# [19] = test system: MCF7; experiment: Anticancer activity against human MCF7 cells assessed as inhibition of cell growth incubated for 48 hrs by SRB assay; assay type: functional
# [20] = test system: NCI-H226; experiment: Anticancer activity against human NCI-H226 cells assessed as cell growth at 0.1 uM incubated for 48 hrs by SRB assay; assay type: functional; conditions: read-out: Activity
# [21] = target: T1, CYP1A1; experiment: Inhibition of recombinant CYP1A1 (unknown origin) assessed as residual enzyme activity using 7-ethoxyresorufin as substrate at 1 uM incubated for 15 mins by resorufin dye based spectrofluorimetry (reference value: 100%); assay type: ADME; conditions: recombinant CYP1A1, probe 7-ethoxyresorufin, read-out: Activity
# [22] = target: T1, CYP1A1; experiment: Inhibition of recombinant CYP1A1 (unknown origin) assessed as residual enzyme activity using 7-ethoxyresorufin as substrate at 10 uM incubated for 15 mins by resorufin dye based spectrofluorimetry (reference value: 100%); assay type: ADME; conditions: recombinant CYP1A1, probe 7-ethoxyresorufin, read-out: Activity
# [23] = test system: MCF7; experiment: Anticancer activity against human MCF7 cells assessed as cell growth at 10 uM incubated for 48 hrs by SRB assay; assay type: functional; conditions: read-out: Activity
# [24] = test system: MDA-MB-435; experiment: Anticancer activity against human MDA-MB-435 cells assessed as cell growth at 1 uM incubated for 48 hrs by SRB assay; assay type: functional; conditions: read-out: Activity
# [25] = read-out: LC50 (the source's name)
compound,measurement,setting,value
Cc1c(F)c(N)c2c(=O)cc(-c3ccc(N)c(F)c3)oc2c1F [AMINOFLAVONE],IC50,[1],0.035 µM
Fc1ccc2nc(-c3ccc4c(c3)OCO4)oc2c1,IC50,[1],19.2 µM
CCOc1ccc(-c2nc3cc(F)ccc3s2)cc1OCC,IC50,[1],0.0007 µM
O=c1c(-c2ccc3c(c2)OCO3)coc2ccc(F)cc12,IC50,[1],60 µM
COc1cc(-c2nc3ccc(F)cc3o2)cc(OC)c1OC,IC50,[1],1.09 µM
COc1ccc(-c2nc3ccccc3s2)cc1OC,IC50,[1],52.7 µM
COc1ccc(-c2coc3ccccc3c2=O)cc1OC,IC50,[1],88.1 µM
COc1ccc(-c2coc3ccc(F)cc3c2=O)cc1OC,IC50,[1],93.1 µM
Oc1ccc(-c2nc3cc(F)ccc3s2)cc1,IC50,[1],0.4 µM
Fc1ccc2oc(-c3ccc4c(c3)OCO4)nc2c1,IC50,[1],61.4 µM
COc1ccccc1-c1nc2ccc(F)cc2s1,IC50,[1],0.82 µM
Fc1ccc2sc(-c3ccc4c(c3)OCO4)nc2c1,IC50,[1],20.7 µM
Oc1ccc(-c2nc3cc(F)ccc3s2)cc1O,IC50,[1],0.72 µM
COc1cc(OC)cc(-c2nc3ccc(F)cc3o2)c1,IC50,[1],3.72 µM
COc1ccc(-c2nc3cc(F)ccc3o2)cc1,IC50,[1],22.7 µM
COc1ccc2nc(-c3ccc(O)cc3)sc2c1,IC50,[1],45.8 µM
COc1ccc(-c2nc3cc(F)ccc3s2)cc1C,IC50,[1],0.048 µM
COc1ccc(-c2coc3cc(F)ccc3c2=O)cc1OC,IC50,[1],90.6 µM
Oc1ccc(-c2nc3ccc(Cl)cc3s2)cc1,IC50,[1],26.5 µM
COc1ccccc1-c1nc2cc(F)ccc2o1,IC50,[1],0.36 µM
COc1ccc(-c2nc3cc(Br)ccc3s2)cc1OC,IC50,[1],13.6 µM
Oc1ccc(-c2nc3ccc(Br)cc3s2)cc1,IC50,[1],4.16 µM
COc1ccc(-c2cc(=O)c3ccc(F)cc3o2)cc1OC,IC50,[1],27.9 µM
COc1cc(-c2nc3cc(F)ccc3o2)cc(OC)c1OC,IC50,[1],16 µM
COc1ccc(-c2coc3c(F)cccc3c2=O)cc1OC,IC50,[1],75.5 µM
COc1cccc(-c2nc3ccc(F)cc3o2)c1,IC50,[1],35.1 µM
COc1cccc(OC)c1-c1nc2ccc(F)cc2o1,IC50,[1],90.7 µM
COc1cc(OC)cc(-c2nc3cc(F)ccc3o2)c1,IC50,[1],45.4 µM
COc1cc(OC)cc(-c2nc3cc(F)ccc3s2)c1,IC50,[1],1.23 µM
Oc1ccc(-c2nc3cc(C(F)(F)F)ccc3s2)cc1,IC50,[1],13.8 µM
COc1ccc(-c2nc3ccc(F)cc3s2)cc1OC,IC50,[1],0.062 µM
NC(=O)c1c(NC(=O)Cc2ccc(F)cc2)sc2c1CCCC2,GI50,[2],> 100 µM
same,LC50,[2],> 100 µM
same,TGI,[2],> 100 µM
same,growth at 10 µM,[3],71.9%
same,"activity at 0.25 h, 0.01 µM",[4],99.8%
same,growth at 100 µM,[5],84.9%
same,growth at 0.1 µM,[6],99.7%
same,growth at 1 µM,[7],84.8%
same,growth at 1 µM,[8],78.7%
same,growth at 10 µM,[9],98.9%
same,GI50,[10],91 µM
same,TGI,[10],> 100 µM
same,CC50,[10]; [25],> 100 µM
same,inhibition (INH),[11],Not Active
same,growth at 100 µM,[12],32.2%
same,"activity at 0.25 h, 0.1 µM",[13],102%
same,"activity at 0.25 h, 100 µM",[14],102%
same,"activity at 0.25 h, 50 µM",[15],98.1%
same,GI50,[16],65.7 µM
same,LC50 (concentration killing 50% of cells),[16],> 100 µM
same,TGI,[16],> 100 µM
same,growth at 0.1 µM,[17],89.7%
same,growth at 100 µM,[18],33%
same,GI50,[19],68.1 µM
same,TGI,[19],> 100 µM
same,CC50,[19]; [25],> 100 µM
same,growth at 0.1 µM,[20],89.8%
same,"activity at 0.25 h, 1 µM",[21],100%
same,"activity at 0.25 h, 10 µM",[22],102%
same,growth at 10 µM,[23],79.3%
same,growth at 1 µM,[24],99.3%
